Laboratory results: patent US12391641B2, “Prostaglandin EP4 receptor antagonist compounds” (NXERA PHARMA UK LIMITED, priority 2019, dated 2025)

Target: T1, Human prostaglandin E2 receptor 4 (EP4) (Homo sapiens, UniProt P35408)
T1 construct: expressed in transfected cells; host or cells: HEK293 cells transduced with EP4 BacMam virus
Test: cAMP Gs Functional Assay (HTRF cAMP dynamic-2), antagonism of PGE2
Format: cell-based
Settings: HEK293 cells transfected with EP4 BacMam virus; PGE2 challenge at EC80 (7 nM); pIC50 converted to functional pKb with a modified Cheng Prussoff equation; read-out: Human EP4 fpKb (converted)
Procedure, shortened: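 HEK293 cells transiently expressing human EP4 via BacMam (36 h), preincubated with compound 30 min at 37 °C in DMEM + 0.5 mM IBMX, 5000 cells/well, then challenged with EC80 PGE2 (7 nM). cAMP read by HTRF; pIC50 converted to pKb by modified Cheng-Prusoff using agonist EC50 and challenge concentration.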

T1 sequence (P35408 whole entry): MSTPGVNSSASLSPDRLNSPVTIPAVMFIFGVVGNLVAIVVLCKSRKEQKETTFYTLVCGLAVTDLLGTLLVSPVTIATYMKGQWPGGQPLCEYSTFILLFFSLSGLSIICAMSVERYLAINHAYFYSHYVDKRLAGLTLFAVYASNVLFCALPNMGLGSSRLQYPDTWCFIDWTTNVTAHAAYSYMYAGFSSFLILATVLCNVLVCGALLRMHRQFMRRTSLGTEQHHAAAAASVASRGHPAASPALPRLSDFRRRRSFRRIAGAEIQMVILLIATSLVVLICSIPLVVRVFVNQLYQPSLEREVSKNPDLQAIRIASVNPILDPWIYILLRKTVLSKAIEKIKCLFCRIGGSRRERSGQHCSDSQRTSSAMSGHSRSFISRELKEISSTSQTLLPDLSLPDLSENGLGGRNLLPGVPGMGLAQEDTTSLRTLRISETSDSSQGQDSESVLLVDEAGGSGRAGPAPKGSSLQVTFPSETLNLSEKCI

In order of falling Ki:
1. CC(C)[C@@H](OCc1ccc(F)cc1)C(=O)N[C@@H](C)c1ccc(C(=O)NS(=O)(=O)C2CC2)cc1 [Example 81, N-(cyclopropylsulfonyl)-4-((S)-1-((R)-2-((4-fluorobenzyl)oxy)-3-methylbutanamido)ethyl)benzamide]  302 nM
2. CS(=O)(=O)c1cccc(COC(C(=O)NC2(c3ccc(C(=O)O)cc3)CC2)C2CCC2)c1 (stereo not shown) [Example 95, 4-(1-(2-cyclobutyl-2-((3-(methylsulfonyl)benzyl)oxy)acetamido)cyclopropyl)benzoic acid]  79.4 nM
3. CC(C)[C@@H](OCc1cccc(S(=O)(=O)C2CC2)c1)C(=O)N[C@@H](C)c1ccc(C(=O)O)cc1 [Example 90, 4-((S)-1-((R)-2-((3-(cyclopropylsulfonyl)benzyl)oxy)-3-methylbutanamido)ethyl)benzoic acid]  29.5 nM
4. CC(C)[C@@H](OCc1cccc(S(=O)(=O)C2CC2)c1)C(=O)NC1(c2ccc(C(=O)O)cc2)CC1 [Example 91, (R)-4-(1-(2-((3-(cyclopropylsulfonyl)benzyl)oxy)-3-methylbutanamido)cyclopropyl)benzoic acid]  20 nM
5. O=C(O)c1ccc(C2(NC(=O)[C@@H](OCc3cccc(OC(F)F)c3)C3CCC3)CC2)cc1 [Example 100, (S)-4-(1-(2-cyclobutyl-2-((3-(difluoromethoxy)benzyl)oxy)acetamido)cyclopropyl)benzoic acid]  15.5 nM
6. O=C(O)c1ccc(C2(NC(=O)C(OCc3ccc(F)c(F)c3)C3CCC3)CC2)cc1 (stereo not shown) [Example 97, 4-(1-(2-cyclobutyl-2-((3,4-difluorobenzyl)oxy)acetamido)cyclopropyl)benzoic acid]  12.6 nM
7. CC(C)[C@@H](OCc1ccc(C(F)F)cn1)C(=O)NC1(c2ccc(C(=O)O)cc2)CC1 [Example 88, (R)-4-(1-(2-((5-(difluoromethyl)pyridin-2-yl)methoxy)-3-methylbutanamido)cyclopropyl)benzoic acid]  11.7 nM
8. CC(C)[C@@H](OCc1ccc(C(F)F)nc1)C(=O)NC1(c2ccc(C(=O)O)cc2)CC1 [Example 84, (R)-4-(1-(2-((6-(difluoromethyl)pyridin-3-yl)methoxy)-3-methylbutanamido)cyclopropyl)benzoic acid]  11.2 nM
9. CC(C)[C@@H](OCc1ccc(F)c(C2CC2)c1)C(=O)NC1(c2ccc(C(=O)O)cc2)CC1 [Example 89, (R)-4-(1-(2-((3-cyclopropyl-4-fluorobenzyl)oxy)-3-methylbutanamido)cyclopropyl)benzoic acid]  6.76 nM
10. O=C(O)c1ccc(C2(NC(=O)C(OCc3ccc(C(F)(F)F)cc3)C3CCC3)CC2)cc1 (stereo not shown) [Example 96, 4-(1-(2-cyclobutyl-2-((4-(trifluoromethyl)benzyl)oxy)acetamido)cyclopropyl)benzoic acid]  6.61 nM
11. O=C(O)c1ccc(C2(NC(=O)C(OCc3cccc(OC(F)F)c3)C3CCC3)CC2)cc1 (stereo not shown) [Example 99, 4-(1-(2-cyclobutyl-2-((3-(difluoromethoxy)benzyl)oxy)acetamido)cyclopropyl)benzoic acid]  3.31 nM
12. O=C(O)c1ccc(C2(NC(=O)C(OCc3cccc(Cl)c3)C3CCC3)CC2)cc1 (stereo not shown) [Example 98, 4-(1-(2-((3-chlorobenzyl)oxy)-2-cyclobutylacetamido)cyclopropyl)benzoic acid]  1.48 nM
13. O=C(O)c1ccc(C2(NC(=O)[C@H](OCc3cccc(OC(F)F)c3)C3CCC3)CC2)cc1 [Example 101, (R)-4-(1-(2-cyclobutyl-2-((3-(difluoromethoxy)benzyl)oxy)acetamido)cyclopropyl)benzoic acid]  0.851 nM
14. CC(C)[C@@H](OCc1cccc(C2CC2)c1)C(=O)N[C@@H](C)c1ccc(-c2nnn[nH]2)cc1 [Example 83, (R)—N—((S)-1-(4-(1H-tetrazol-5-yl)phenyl)ethyl)-2-((3-cyclopropylbenzyl)oxy)-3-methylbutanamide]  0.186 nM
15. CC(C)[C@@H](OCc1cccc(OC(F)F)c1)C(=O)N[C@@H](C)c1ccc(-c2nnn[nH]2)cc1 [Example 82, (R)—N—((S)-1-(4-(1H-tetrazol-5-yl)phenyl)ethyl)-2-((3-(difluoromethoxy)benzyl)oxy)-3-methylbutanamide]  0.0871 nM
16. CC(C)[C@@H](OCc1ccc(F)c(C2CC2)c1)C(=O)N[C@@H](C)c1ccc(C(=O)O)cc1 [Example 85, 4-((S)-1-((R)-2-((3-cyclopropyl-4-fluorobenzyl)oxy)-3-methylbutanamido)ethyl)benzoic acid]  0.055 nM
